For assay [1], the target named is T1, EpHB4 (Homo sapiens, UniProt P54760).
T1 sequence (P54760 16-987): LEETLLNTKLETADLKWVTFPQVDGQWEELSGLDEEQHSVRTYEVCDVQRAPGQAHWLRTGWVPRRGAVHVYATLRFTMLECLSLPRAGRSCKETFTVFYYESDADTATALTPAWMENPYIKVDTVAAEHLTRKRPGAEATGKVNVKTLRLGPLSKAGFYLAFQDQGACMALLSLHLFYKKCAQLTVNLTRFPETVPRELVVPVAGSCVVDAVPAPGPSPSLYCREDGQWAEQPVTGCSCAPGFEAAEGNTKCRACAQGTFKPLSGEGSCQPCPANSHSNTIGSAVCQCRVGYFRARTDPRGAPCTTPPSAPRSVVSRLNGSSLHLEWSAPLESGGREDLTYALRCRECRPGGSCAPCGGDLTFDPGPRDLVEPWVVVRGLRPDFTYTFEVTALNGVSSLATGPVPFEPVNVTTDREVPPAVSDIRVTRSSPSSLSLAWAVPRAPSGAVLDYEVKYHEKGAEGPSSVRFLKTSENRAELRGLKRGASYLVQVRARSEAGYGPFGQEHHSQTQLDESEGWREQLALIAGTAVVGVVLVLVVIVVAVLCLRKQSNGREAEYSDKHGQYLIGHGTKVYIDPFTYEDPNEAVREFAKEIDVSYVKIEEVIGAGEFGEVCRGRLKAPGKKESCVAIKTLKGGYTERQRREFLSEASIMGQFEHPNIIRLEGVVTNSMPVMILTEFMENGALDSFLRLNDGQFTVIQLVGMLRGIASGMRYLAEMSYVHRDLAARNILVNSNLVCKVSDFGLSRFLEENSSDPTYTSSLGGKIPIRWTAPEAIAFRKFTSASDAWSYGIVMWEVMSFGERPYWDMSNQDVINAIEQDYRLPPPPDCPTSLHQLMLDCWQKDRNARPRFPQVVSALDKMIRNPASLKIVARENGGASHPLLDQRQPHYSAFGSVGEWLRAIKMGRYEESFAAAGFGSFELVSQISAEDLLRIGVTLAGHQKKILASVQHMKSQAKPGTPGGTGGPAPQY
Description: NanoBRET target engagement. Format: cell-based.

Assay [2] deals with BRAF (Homo sapiens, UniProt P15056). Description: biochemical.
Assay [3] concerns the target T2, NEK1 (Homo sapiens, UniProt Q96PY6).
T2 sequence (Q96PY6 1-1258): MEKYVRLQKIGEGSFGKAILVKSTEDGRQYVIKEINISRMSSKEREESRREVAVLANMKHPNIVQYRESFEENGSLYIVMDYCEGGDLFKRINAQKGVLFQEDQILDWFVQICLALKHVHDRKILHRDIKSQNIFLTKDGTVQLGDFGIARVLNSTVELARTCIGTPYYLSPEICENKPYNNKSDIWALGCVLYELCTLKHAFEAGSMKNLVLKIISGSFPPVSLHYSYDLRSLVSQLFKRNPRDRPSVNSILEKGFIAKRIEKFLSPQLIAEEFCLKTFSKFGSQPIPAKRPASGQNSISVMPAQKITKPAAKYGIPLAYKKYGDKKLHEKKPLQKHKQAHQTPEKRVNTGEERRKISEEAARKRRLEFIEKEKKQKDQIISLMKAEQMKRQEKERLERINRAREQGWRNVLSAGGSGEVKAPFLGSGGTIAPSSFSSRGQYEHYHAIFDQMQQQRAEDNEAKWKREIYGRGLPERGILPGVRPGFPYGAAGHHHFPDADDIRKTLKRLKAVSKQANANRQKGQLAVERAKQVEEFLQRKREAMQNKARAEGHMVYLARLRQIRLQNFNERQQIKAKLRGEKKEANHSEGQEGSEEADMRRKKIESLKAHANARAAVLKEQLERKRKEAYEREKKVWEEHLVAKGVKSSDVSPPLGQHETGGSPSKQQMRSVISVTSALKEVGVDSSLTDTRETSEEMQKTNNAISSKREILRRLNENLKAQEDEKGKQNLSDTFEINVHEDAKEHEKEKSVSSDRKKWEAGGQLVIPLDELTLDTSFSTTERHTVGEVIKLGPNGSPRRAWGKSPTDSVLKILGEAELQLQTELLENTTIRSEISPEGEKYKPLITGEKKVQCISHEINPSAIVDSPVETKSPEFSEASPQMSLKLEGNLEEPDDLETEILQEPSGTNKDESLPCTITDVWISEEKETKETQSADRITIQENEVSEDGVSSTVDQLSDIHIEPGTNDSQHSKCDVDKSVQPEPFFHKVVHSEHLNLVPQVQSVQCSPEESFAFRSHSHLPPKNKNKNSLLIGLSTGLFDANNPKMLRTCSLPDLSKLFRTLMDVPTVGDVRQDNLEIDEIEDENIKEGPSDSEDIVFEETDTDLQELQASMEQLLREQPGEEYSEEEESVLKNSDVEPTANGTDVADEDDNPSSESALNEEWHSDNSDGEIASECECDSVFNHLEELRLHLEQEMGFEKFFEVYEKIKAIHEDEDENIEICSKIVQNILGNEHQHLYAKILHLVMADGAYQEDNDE
Description: biochemical.

The target of assay [4] is T3, NQO2A (Homo sapiens, UniProt P16083).
T3 sequence (P16083 1-231): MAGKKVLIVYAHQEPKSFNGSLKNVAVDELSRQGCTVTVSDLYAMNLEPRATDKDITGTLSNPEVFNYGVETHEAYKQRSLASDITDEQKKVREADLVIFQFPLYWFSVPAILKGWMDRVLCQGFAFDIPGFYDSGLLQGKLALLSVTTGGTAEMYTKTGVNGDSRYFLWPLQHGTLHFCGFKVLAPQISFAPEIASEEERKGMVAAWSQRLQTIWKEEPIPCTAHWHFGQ
Description: biochemical.

Where two headings read alike, the source gives them in different places.

Sequence of BRAF (P15056 whole entry): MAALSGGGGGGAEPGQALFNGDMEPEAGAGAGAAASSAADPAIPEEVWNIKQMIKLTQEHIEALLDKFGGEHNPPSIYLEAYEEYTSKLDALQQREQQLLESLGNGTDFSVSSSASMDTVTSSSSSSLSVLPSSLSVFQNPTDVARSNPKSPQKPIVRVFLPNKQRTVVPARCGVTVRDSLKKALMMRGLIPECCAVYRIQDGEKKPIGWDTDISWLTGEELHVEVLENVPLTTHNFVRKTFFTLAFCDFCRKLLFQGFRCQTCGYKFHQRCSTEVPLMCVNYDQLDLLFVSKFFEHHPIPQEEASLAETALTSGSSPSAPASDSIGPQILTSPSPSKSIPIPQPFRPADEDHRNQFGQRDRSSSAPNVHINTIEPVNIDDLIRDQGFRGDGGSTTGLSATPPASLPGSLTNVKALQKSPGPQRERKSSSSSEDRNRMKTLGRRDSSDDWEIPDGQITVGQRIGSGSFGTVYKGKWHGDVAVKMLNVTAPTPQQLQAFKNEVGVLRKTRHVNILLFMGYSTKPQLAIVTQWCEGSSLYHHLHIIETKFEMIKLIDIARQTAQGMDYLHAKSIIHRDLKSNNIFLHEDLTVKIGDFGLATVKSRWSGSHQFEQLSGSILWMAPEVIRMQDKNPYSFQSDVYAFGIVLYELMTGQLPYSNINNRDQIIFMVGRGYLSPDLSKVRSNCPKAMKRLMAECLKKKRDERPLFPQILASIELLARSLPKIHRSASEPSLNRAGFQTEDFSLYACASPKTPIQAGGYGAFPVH

The IC50 is the concentration that inhibits the measured activity by half. A higher IC50 goes with a need for much substance. `CNc1ncc2cc(-c3cc(Cl)ccc3Cl)c(=O)n(CCCCN)c2n1` [compound 8, 8-(4-Aminobutyl)-6-(2,5-dichlorophenyl)-2-(methylamino)pyrido[2,3-d]pyrimidin-7(8H)-one] gave a half-maximal inhibitory concentration (IC50) in assay [1] of 188 ± 17 nM. In addition, the ΔTm at 10 µM in assay [2] (read-out: dTm 8) came to 10.8 °C; in assay [3] (read-out: dTm 8) it was 0.1 °C; in assay [4] (read-out: dTm 8), 0.5 °C.
With `CNc1ncc2cc(-c3ccccc3Cl)c(=O)n(CCCCN)c2n1` [compound 4, 8-(4-Aminobutyl)-6-(2-chlorophenyl)-2-(methylamino)pyrido[2,3-d]pyrimidin-7(8H)-one], in assay [1], the IC50 was 50 ± 12 nM.
Consider `CNc1ncc2cc(-c3cc(Br)ccc3Br)c(=O)n(CCCCN)c2n1` [compound 11, 8-(4-Aminobutyl)-6-(2,5-dibromophenyl)-2-(methylamino)pyrido[2,3-d]pyrimidin-7(8H)-one], for which the ΔTm at 10 µM in assay [2] (read-out: dTm 11) stood at 11.6 °C; in assay [3] (read-out: dTm 11), 0.1 °C; in assay [4] (read-out: dTm 11), 0.3 °C.
For `CNc1ncc2cc(-c3cc(F)ccc3F)c(=O)n(CCCCN)c2n1` [compound 5, 8-(4-Aminobutyl)-6-(2,5-difluorophenyl)-2-(methylamino)pyrido[2,3-d]pyrimidin-7(8H)-one], the IC50 in assay [1] (intact mode, HEK293T, 37 °C, 2 h, tracer displacement) was 607 ± 37 nM.
As to `CNc1ncc2cc(-c3cc(C(F)(F)F)ccc3Cl)c(=O)n(CCCCN)c2n1` [compound 9, 8-(4-Aminobutyl)-6-(2-chloro-5-(trifluoromethyl)phenyl)-2-(methylamino)pyrido[2,3-d]pyrimidin-7(8H)-one], the ΔTm at 10 µM is 10.4 °C in assay [2] (read-out: dTm 9), 0.1 °C in assay [3] (read-out: dTm 9) and -0.3 °C in assay [4] (read-out: dTm 9).
As for `CNc1ncc2cc(-c3cc(F)c(-c4cccc(C)n4)cc3F)c(=O)n(CCCCN)c2n1` [compound 12, 8-(4-Aminobutyl)-6-(2,5-difluoro-4-(6-methylpyridin-2-yl)phenyl)-2-(methylamino)pyrido[2,3-d]pyrimidin-7(8H)-one], the results for the ΔTm at 10 µM in assay [2] (read-out: dTm 12), in assay [3] (read-out: dTm 12) and in assay [4] (read-out: dTm 12) were 2.3 °C, -0.4 °C and 0.2 °C, respectively.
Regarding `CNc1ncc2cc(-c3cc(Cl)ccc3Br)c(=O)n(CCCCN)c2n1` [compound 10, 8-(4-Aminobutyl)-6-(2-bromo-5-chlorophenyl)-2-(methylamino)pyrido[2,3-d]pyrimidin-7(8H)-one], the ΔTm at 10 µM was 11.4 °C in assay [2] (read-out: dTm 10), 0.1 °C in assay [3] (read-out: dTm 10) and 0.6 °C in assay [4] (read-out: dTm 10).

The record behind these values is article doi:10.1101/2023.03.24.534094v2 (biorxiv, 2023).
